Where a name gives a salt, the structure may show the parent alone.
Columns and labels:
[1] = tested on: cough stroke caused by the aerosol (citric acid); test: Anti-tussive activity: cough strokes caused by citric acid aerosol; format: in vivo, Guinea pigs; conditions: guinea pig, citric acid 7.5% aerosol, 110 micromoles/Kg i.p., 30 minutes after injection, counted for 10 minutes; control group = 100%
Experimental: Guinea pigs (weight 430+20) were treated as described by Braga et Al. Arzneim. Forsch./Drug Res. 43, 550, 1993.
In this pharmacological experiment 5 groups of 8 animals each were formed. One group was not treated and was the control group.
Each animal was placed in a cylindrical glass container having one tubing through each of the two circular flat surfaces. Said tubing were, respectively, for the aerosol inlet and outlet. The outlet tubing is connected to a polygraphic system.
The aerosol was formed from a solution 7.5% by weight of citric acid in water.
The air variation inside the glass container was registered before and after a cough stroke caused by the aerosol. One hour later Dextromethorphan hydrochloride, Dextromethorphan nitrate, Dextrorphan hydrochloride and dextrorphan nitrate were i.p. administered in a physiologic solution at a dose of 110 micromoles/Kg. 30 minutes after the injection the animals were treated with the aerosol. It was then registered the number of cough strokes for a time of 10 minutes. In the following Table III are reported the average response obtained from each treated group, referred to that of the control group, made 100%.

[2] = tested on: bronchoconstrictive response induced by capsaicin; test: Experimental bronchoconstriction induced by capsaicin (tidal air variation, Konzett apparatus); format: in vivo; conditions: guinea pig, capsaicin 1 μg/Kg i.v., 0.3 nmoles/min i.v. infusion for 15 minutes; percent values with respect to the control (carrier = 100)
Experimental: (§1) Each groups consisted of eight animals. […] For a total 15 minutes, starting from 5 minutes before capsaicin injection to 10 minutes after) Salbutamol (0.3 nmoles/min), or the corresponding nitrate salt (0.3 nmoles/min) or only the carrier were administered by intravenous infusion were administered to each group.
The heart frequency was determined by an electrocardiographic device, according to the usual methods. The average value of the heart frequency following administration of the vehicle was of 188±7 beats per minute.

heart frequency = test: Heart frequency (tachycardia) by electrocardiographic device during the capsaicin bronchoconstriction test; format: in vivo; conditions: guinea pig, 0.3 nmoles/min i.v. infusion for 15 minutes; percent values with respect to the control (carrier = 100; vehicle 188±7 beats per minute)
Experimental: as §1
The heart frequency was determined by an electrocardiographic device, according to the usual methods.

tracheal secretion = test: Mucolitic activity: phenol red in the tracheal secretion; format: in vivo; conditions: male mice, 264 micromoles/Kg i.p. ten minutes before phenol red 500 mg/Kg i.p.; % variation of absorbance versus control group = 100%
Experimental: Mucolitic activity in male mice was evaluated according to the Method of Engler and Zselenyi, J. Pharm. Methods 11, 151, 1984. By this method it is determined the quantity of phenol red in the tracheal secretion. The animals were previously administered i.p. at a dose of 500 mg/Kg with the dye dissolved in physiologic solution. 3 groups of mice (weight 18±2 g), of 10 animal each, were treated i.p. with the dye. One group was the control group. Each of the two treated groups received, ten minutes before the above injection, an i.p. injection of 264 micromoles/Kg of Ambroxol nitrate or Ambroxol hydrochloride, respectively. 30 minutes after the phenol red injection, the animals were sacrificed. The trachea was freed from the surrounding tissues, dissected and washed for 30 minutes in 3 ml of physiologic solution. 0.1 ml of 1 M sodium hydroxide were then added to the physiologic solution. The washings were centrifuged for 15 minutes at 3000 rpm. A spectrophotometric assay was performed on the supernatant in order to determine the concentration of phenol red in the physiologic solution. Mucolitic activity was determined as % variation of absorbance of the sample in the confront of that of the control group, assumed to be 100%.

histamine = test: Antihistaminic activity: experimental bronchoconstriction after i.v. histamine; format: in vivo; conditions: guinea pig, histamine 2 μg/Kg i.v., compound endovenously, percent values with respect to the control (vehicle = 100)

In the case of CN1CC[C@]23CCCC[C@H]2[C@H]1Cc1ccc(O)cc13 [Dextrorphan nitrate], the “cough strokes (%)” value [1] is reported as 0%.
For CC(C)(C)NCC(O)c1ccc(O)c(CO)c1 (stereo not drawn) [Salbutamol], the “Bronchoconstriction (%)” value [2] was 0% and the “Tachycardia (%)” value (heart frequency) was 116%.
For COc1ccc2c(c1)[C@]13CCCC[C@@H]1[C@H](C2)N(C)CC3 [Dextromethorphan hydrochloride], the “cough strokes (%)” value [1] was 30%.
With Nc1c(Br)cc(Br)cc1CN[C@H]1CC[C@H](O)CC1 [Ambroxol hydrochloride] the “Mucolitic activity (%)” value (tracheal secretion) was 30%.
In the case of COc1ccc2c(c1)[C@@]13CCCC[C@H]1[C@@H](C2)N(C)CC3 [Dextromethorphan nitrate], the “cough strokes (%)” value [1] is reported as 0%.
Nc1c(Br)cc(Br)cc1CNC1CCC(O)CC1 (stereo not drawn) [Ambroxol nitrate] was tested, and the “Mucolitic activity (%)” value (tracheal secretion) was 0%.
In the case of CN1CC[C@@]23CCCC[C@@H]2[C@@H]1Cc1ccc(O)cc13 [Dextrorphan hydrochloride], the “cough strokes (%)” value [1] is reported as 40%.
O=C(O)COCCN1CCN(C(c2ccccc2)c2ccc(Cl)cc2)CC1 (stereo not drawn) [Cetirizine nitrate] was tested, and the “Broncocostriction (%)” value (histamine) was 0%.
O=C(O)COCCN1CCN(C(c2ccccc2)c2ccc(Cl)cc2)CC1 (stereo not drawn) [Cetirizine hydrochloride] was tested, and the “Broncocostriction (%)” value (histamine; hydrochloride) was 40%.
With CC(C)(C)NCC(O)c1ccc(O)c(CO)c1 (stereo not drawn) [Salbutamol.HNO3, Salbutamol nitrate] the “Bronchoconstriction (%)” value [2] was 0% and the “Tachycardia (%)” value (heart frequency) was 97%.
